Test results as given in patent US20200246284A1 (Academia Sinica, priority 2015, published 2020).
Where two headings read alike, the source gives them in different places. Values belong to the compound of their own block, whether it stands above or below them.

Key:
[1] = rat
in vitro = details: rat, microsomes
H889 = assay: Cytotoxicity SCLC 72 hr alamar blue; type: cell-based, human; details: Homo sapiens, NCI-H889, 72 h
MA-10-W51 = assay: Cytotoxicity leukemia; type: cell-based, human; details: growth factor dependent MA-10-W51
Excerpt: Human cord blood CD34+ cells transduced with MLL-AF9 gene: MA-10, MA-18. Human bone marrow CD34+ cells transduced with MLL-AF9 gene: MA-23. Human cord blood CD34+ cells transduced with MLL-AF9 and N-ras genes: MA-9.3, […] ).

JEKO-1 [2] = assay: Cytotoxicity mantle cell lymphoma
[3] = tested on: BCI-NSI hTERT bronchial epithelium; assay: Cytotoxicity normal tissue 72 hr; type: cell-based, human
[4] = tested on: HUVEC umbilical endothelium; assay: Cytotoxicity normal tissue 72 hr; type: cell-based, human
CV1 renal fibroblasts = assay: Cytotoxicity normal tissue 72 hr; type: cell-based, African green monkey (Cercopithecus aethiops); details: Chlorocebus sabaeus, Fibroblast
[5] = tested on: nude mice bearing prostate 22Rv/HL2; details: mouse, in vivo
[6] = tested on: nude mice bearing prostate 22Rv/HL2 tumor xenografts; details: mouse, in vivo
[7] = tested on: nude mice bearing prostate 22Rv/HL2; details: mouse, in vivo; remark: listed apart in the source
Toledo = details: human
hERG = hERG (Homo sapiens, UniProt Q12809); assay: in vitro
Chain of hERG (Q12809 whole entry): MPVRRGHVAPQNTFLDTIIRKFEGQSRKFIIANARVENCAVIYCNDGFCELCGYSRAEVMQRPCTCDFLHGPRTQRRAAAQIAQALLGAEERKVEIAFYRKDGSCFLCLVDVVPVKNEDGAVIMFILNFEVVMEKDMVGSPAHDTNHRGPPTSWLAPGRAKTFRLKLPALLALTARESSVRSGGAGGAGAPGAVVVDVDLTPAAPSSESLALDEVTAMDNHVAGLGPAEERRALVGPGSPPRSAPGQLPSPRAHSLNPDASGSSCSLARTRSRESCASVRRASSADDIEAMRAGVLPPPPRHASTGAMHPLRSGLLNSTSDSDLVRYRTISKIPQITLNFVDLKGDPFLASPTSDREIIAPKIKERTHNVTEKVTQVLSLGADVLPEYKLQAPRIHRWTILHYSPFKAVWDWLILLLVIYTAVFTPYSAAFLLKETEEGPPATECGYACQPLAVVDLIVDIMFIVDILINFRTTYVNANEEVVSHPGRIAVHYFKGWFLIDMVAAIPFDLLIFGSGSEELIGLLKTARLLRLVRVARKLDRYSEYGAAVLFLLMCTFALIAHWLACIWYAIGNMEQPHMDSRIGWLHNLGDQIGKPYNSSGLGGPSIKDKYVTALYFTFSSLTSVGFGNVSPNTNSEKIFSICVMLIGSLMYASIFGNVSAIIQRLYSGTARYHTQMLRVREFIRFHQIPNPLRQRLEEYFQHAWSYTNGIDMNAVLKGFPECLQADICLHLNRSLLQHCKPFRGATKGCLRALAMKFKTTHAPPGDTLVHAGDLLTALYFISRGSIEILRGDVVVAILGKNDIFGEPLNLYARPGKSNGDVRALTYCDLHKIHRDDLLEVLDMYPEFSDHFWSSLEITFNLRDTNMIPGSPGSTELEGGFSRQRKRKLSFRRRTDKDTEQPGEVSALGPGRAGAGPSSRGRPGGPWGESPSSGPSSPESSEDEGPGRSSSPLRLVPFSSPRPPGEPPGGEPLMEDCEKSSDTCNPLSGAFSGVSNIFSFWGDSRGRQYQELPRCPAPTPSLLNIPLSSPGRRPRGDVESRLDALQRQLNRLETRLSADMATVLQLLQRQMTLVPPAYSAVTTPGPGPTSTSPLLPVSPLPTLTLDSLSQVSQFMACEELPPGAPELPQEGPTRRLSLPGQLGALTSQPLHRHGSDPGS

REC-1 = assay: Combination with BO-1055, MCL (Tables 28, 29); type: cell-based, human
Farage = assay: cells; details: Homo sapiens, read-out: cytotoxicity IC50
A204 rhabdomyosarcoma = assay: Cytotoxicity sarcoma; details: read-out: cytotoxic activity (IC50), A204 (rhabdoid?)
Mino [8] = assay: Combination with BO-1055, MCL (Tables 28, 29); type: cell-based, human
Ly18 = assay: Cytotoxicity DLBCL; details: read-out: cytotoxicity IC50; LY18, DLBCL GCB
NECB-1 = assay: Cytotoxicity mantle cell lymphoma
HBL1 = details: human
Ly19 = assay: cells; details: Homo sapiens, read-out: cytotoxicity IC50
SUDHL-5 = assay: Cytotoxicity DLBCL; details: read-out: cytotoxicity IC50; SUDHL-5, DLBCL GCB
Granta = assay: Combination with BO-1055, MCL (Tables 28, 29); type: cell-based, human
Z-138 [9] = assay: Combination with BO-1055, MCL (Tables 28, 29); type: cell-based, human
Z-138 [10] = assay: Cytotoxicity mantle cell lymphoma; details: read-out: cytotoxicity IC50, Z-138, mantle cell lymphoma
U2932 = details: human
NECB1 = assay: Combination with BO-1055, MCL (Tables 28, 29); type: cell-based, human
FBMC fetal BM stroma = assay: Cytotoxicity normal tissue 72 hr; type: cell-based; details: Homo sapiens
Granta-519 [11] = tested on: Granta-519
JEKO-1 [12] = details: human
Mino [13] = tested on: Mino
Granta-519 [14] = assay: Cytotoxicity mantle cell lymphoma; details: human, Granta-519 mantle cell lymphoma cells, 72 h
Mino [15] = assay: Cytotoxicity mantle cell lymphoma; details: human, Mino mantle cell lymphoma cells, 72 h
[16] = tested on: FTE-hTERT Fallopian epithelium; assay: Cytotoxicity normal tissue 72 hr; type: cell-based, human
BMMSC BM mesenchyme = assay: Cytotoxicity normal tissue 72 hr; type: cell-based, human
MS-5 adult BM stroma = assay: Cytotoxicity normal tissue 72 hr; type: cell-based, mouse; details: MS-5 (mouse), 72 hr; listed as TMZ; read-out: IC50
[17] = tested on: Rhabdomyosarcoma cell lines; assay: Cytotoxicity, sarcoma panel (Table 30); type: cell-based; details: Homo sapiens, 5/6 rhabdomyosarcoma lines
[18] = tested on: normal human, murine or primate cell and tissue types; assay: Cytotoxicity, panel of normal tissues (MTT, alamar blue); type: cell-based; details: 5 highly drug resistant normal tissues
[19] = tested on: primary patient Ewing's sarcoma xenograft in NSG mice; assay: Cyclophosphamide-resistant primary Ewing's sarcoma xenograft; type: in vivo, mouse; details: cyclophosphamide 70 mg/kg i.p. x3, then BO-1055 30 mg/kg iv x4
LY1 = details: human
[20] = tested on: spontaneous murine B-cell lymphoma; details: mouse
Ly3 (OCI-LY3) = details: human
[21] = read-out: cytotoxicity IC50, NECB-1, mantle cell lymphoma

Compound: CCOc1ccc2ccc(=O)oc2c1 [7-EC, 7-Ethoxycoumarin]
MR (metabolic rate) [1]: 0.0448 nmol/min/mg
% Remaining at 60 min ([1]; microsomes, 1 h): 18%
Microsome stability, standards ([1]; microsomes, 1 h): High standard = 95%
Microsome stability, turnover ([1]; microsomes, 1 h): 7-EC ≥ 82%)
half-life (in vitro): 23.5 min

Compound: O=NN(CCCl)C(=O)NCCCl [BCNU, BCNU/Carmustine]
IC50 (H889): > 45 µM

Compound: CCc1c(CO)c(CO)c2n1Cc1c(c3ccccc3n1C)C2 [BO-1978]
cytotoxicity, dose titration (FIG. 9) (MA-10-W51): highly cytotoxic, with BO-1978 more so than BO-1055

Compound: Cn1c(CCCC(=O)O)nc2cc(N(CCCl)CCCl)ccc21 [Bendamustine]
IC50 (JEKO-1 [2]): 6250 nM
IC50 [3]: 150 µM
IC50 [4]: 150 µM
IC50 (CV1 renal fibroblasts; 72 h): > 100 µM

BASO [5]: 0.08 10^3/μL
EOS [5]: 0.12 10^3/μL
LYM [5]: 0.66 10^3/μL
MONO [5]: 0.04 10^3/μL
NEU [5]: 1.34 10^3/μL
PLT [5]: 308 10^3/μL
RBC [5]: 7.55 10^6/μL
WBC [5]: 2.49 10^3/μL
pathological change in heart, liver, spleen, lung and kidney [6]: no apparent pathological change
BUN [7]: 21.93 mg/dL
CREA [7]: 0.32 mg/dL
UA [7]: 3.60 mg/dL
Compound: CC(=O)O[C@@]12CO[C@@H]1C[C@H](O)[C@@]1(C)C(=O)[C@H](O)C3=C(C)[C@@H](OC(=O)[C@H](O)[C@@H](NC(=O)OC(C)(C)C)c4ccccc4)C[C@@](O)([C@@H](OC(=O)c4ccccc4)[C@H]21)C3(C)C [Docetaxel]
ALT [7]: 54.08 U/L
AST [7]: 108.60 U/L

Compound: COc1cccc2c1C(=O)c1c(O)c3c(c(O)c1C2=O)C[C@@](O)(C(=O)CO)C[C@@H]3O[C@H]1C[C@H](N)[C@H](O)[C@H](C)O1 [Doxorubicin]
IC50 (Ly10; human): 84 nM
IC50 (Toledo): > 10000 nM
IC50 (hERG): 30 ± 30 nM
interaction with BO-1055 (REC-1): both combinations were antagonistic
IC50 (JEKO-1 [2]): 50 nM
IC50 (Pfeiffer; human): 61 nM
IC50 (Farage): 273 nM
IC50 (A204 rhabdomyosarcoma): 0.011 µM
interaction with BO-1055 (Mino [8]): both combinations were synergistic
IC50 (Ly18): 97 nM
IC50 (NECB-1; [21]): 163 nM
IC50 (NECB-1; read-out: cytotoxicity IC50, NECB-1, mantle cell lymphoma, listed as Doxo): 1230 nM
IC50 (HBL1): 211 nM
IC50 (Ly19): 121 nM
IC50 (SUDHL-6; human): 195 nM
IC50 (SUDHL-5): 912 nM
interaction with BO-1055 (Granta): synergistic with combo-1 and antagonistic against combo-2
interaction with BO-1055 (Z-138 [9]): both combinations were synergistic
IC50 (Z-138 [10]): 33 nM
IC50 (Z-138 [10]; listed as Doxo): 340 nM
IC50 (U2932): 50 nM
interaction with BO-1055 (NECB1): synergistic with combo-1 and antagonistic against combo-2

Compound: COc1cc([C@@H]2c3cc4c(cc3[C@@H](O[C@@H]3O[C@@H]5CO[C@@H](C)O[C@H]5[C@H](O)[C@H]3O)[C@H]3COC(=O)[C@H]23)OCO4)cc(OC)c1O [Etoposide]
IC50 (JEKO-1 [2]): 780 nM

Compound: N[C@@H](Cc1ccc(N(CCCl)CCCl)cc1)C(=O)O [Melphalan]
IC50 (JEKO-1 [2]): 1100 nM
IC50 (FBMC fetal BM stroma): > 10 µM

Compound: CC(=O)O[C@H]1C(=O)[C@@]2(C)[C@H]([C@H](OC(=O)c3ccccc3)[C@]3(O)C[C@H](OC(=O)[C@H](O)[C@@H](NC(=O)c4ccccc4)c4ccccc4)C(C)=C1C3(C)C)[C@]1(OC(C)=O)CO[C@@H]1C[C@@H]2O [Paclitaxel]
IC50 (Granta-519 [11]; human): 49 nM
IC50 (JEKO-1 [12]): 17 nM
IC50 (NECB-1; [21]): 64 nM
IC50 (Mino [13]; human): 25 nM
IC50 (Z-138 [10]): 12 nM

Compound: Cc1[nH]c2ccccc2c1CCNCc1ccc(/C=C/C(=O)NO)cc1 [Panobinostat]
IC50 (Granta-519 [14]): 41 nM
IC50 (JEKO-1 [2]; human, JEKO-1 mantle cell lymphoma cells, 72 h): 210 nM
IC50 (NECB-1; human, NECB-1 mantle cell lymphoma cells, 72 h): 20 nM
IC50 (Mino [15]): 291 nM

Compound: CCc1c2c(nc3ccc(O)cc13)-c1cc3c(c(=O)n1C2)COC(=O)[C@]3(O)CC [SN-38]
IC50 [16]: 2 mM
IC50 (JEKO-1 [2]): 800 nM
IC50 ([3]; read-out: IC50): 500 µM
IC50 ([4]; read-out: IC50): 400 µM
IC50 (BMMSC BM mesenchyme): 200 µM

Compound: CNC(=O)c1cc(Oc2ccc(NC(=O)Nc3ccc(Cl)c(C(F)(F)F)c3)cc2)ccn1 [SOR]
IC50 (Ly10): ≥ 8000 nM
IC50 (Ly8): ≥ 8000 nM
IC50 (Granta-519 [11]): ≥ 8000 nM
IC50 (Pfeiffer): 4570 nM
IC50 (SUDHL-6): ≥ 8000 nM
IC50 (SUDHL-4): 5620 nM
IC50 (Mino [13]): ≥ 8000 nM

Compound: Cn1nnc2c(C(N)=O)ncn2c1=O [Temozolomide]
IC50 (MS-5 adult BM stroma): 5.59 µM
IC50 [17]: ≥ 191 µM
IC50 [18]: ≥ 20 µM
IC50 (A204 rhabdomyosarcoma): 569 µM
IC50 (CV1 renal fibroblasts; CV1 primate, 72 hr, read-out: IC50): > 100 µM

Compound: CC[C@]1(O)C[C@H]2CN(CCc3c([nH]c4ccccc34)[C@@](C(=O)OC)(c3cc4c(cc3OC)N(C=O)[C@H]3[C@@](O)(C(=O)OC)[C@H](OC(C)=O)[C@]5(CC)C=CCN6CC[C@]43[C@@H]65)C2)C1 [Vincristine]
IC50 (JEKO-1 [2]; JEKO-1, 72 hr (Table 27)): 390 nM

Compound: O=P1(N(CCCl)CCCl)NCCCO1 (centres unmarked) [cyclophosphamide]
tumor growth [19]: Tumor growth was not inhibited

Compound: CC(C)C[C@H](NC(=O)[C@H](Cc1ccccc1)NC(=O)c1cnccn1)B(O)O [velcade, Bortezomib]
IC50 (Ly8; human): 78 nM
IC50 (Toledo): 108 nM
IC50 (Granta-519 [11]; human): 8 nM
interaction with BO-1055 (REC-1): antagonistic in both combinations
IC50 (Pfeiffer; human): 4 nM
IC50 (LY1): 5 nM
interaction with BO-1055 (Mino [8]): synergistic cytotoxic with both combinations
IC50 (Ly18): 10 nM
IC50 (NECB-1; [21]): 143 nM
IC50 (HBL1): 4 nM
IC50 [20]: 6 nM
IC50 (Ly3 (OCI-LY3)): 21 nM
IC50 (SUDHL-6; human): 1 nM
IC50 (SUDHL-4; human): 3 nM
IC50 (SUDHL-5): 18 nM
interaction with BO-1055 (Granta): synergistic with combo-1 and antagonistic with combo-2
IC50 (Mino [13]; human): 42 nM
interaction with BO-1055 (Z-138 [9]): synergistic cytotoxic with both combinations
IC50 (U2932): 5 nM
interaction with BO-1055 (NECB1): synergistic with combo-1 and antagonistic with combo-2
